Source: patent publication US9927437B2, “Treating neurodegenerative disease” (THE BRIGHAM AND WOMEN'S HOSPITAL, INC., priority 2013, dated 2018)

Legend:
C8-D30 astrocytes = assay: In vitro knock-down with shRNA in C8-D30 astrocytes, LPS/IFNγ activation; type: cell-based, mouse; settings: lentivirus-delivered shRNA
astrocytes = assay: mRNA expression in astrocytes isolated from EAE NOD mice (nCounter, qPCR); type: in vivo, mouse; settings: NOD EAE; i.c.v. lentivirus at day 35, qPCR
Description: Mononuclear cells were isolated from the CNS as previously described^50 with minor modifications. Naïve and EAE mice were euthanatized, and then subjected to perfusion through the left ventricle with ice-cold sterile PBS. Brains and spinal cord were then removed, minced and enzymatically dissociated with 0.05% (w/v) collagenase type III (Worthington Biochemical), 0.5% Dispase II (Roche Applied Science), 40 μg/ml DNAse I, 20 mM HEPES in HBSS) for 30 min at 37 C to make a suspension of single cells. Enzymes were inactivated with 20 ml of Ca^2+/Mg^2+-free HBSS containing 2 mM EDTA and 20 mM HEPES. The digested tissue was triturated and passed through a […] cell strainer. Cells were centrifuged and resuspended in 30% isotonic Percoll (GE Healthcare) and 40 μg/ml DNAse I, underlined by 70% isotonic Percoll, and centrifuged at 1000×g at 4° C. for 25 min. Cells were collected from the 70%-30% interphase, and sorted by FACS Aria.
These purification procedures are based on previously described dissociation and purification protocols^50,51. Isolated CNS cells, were incubated with anti-Mouse CD16/CD32 for 15 min on ice to block the Fc receptors, and stained with fluorochrome-conjugated antibody for CD11b (M1/70), CD45(90), CD3 (145-2C11), CD4 (GK1.5), and Ly6C (HK1.4), and Biotion-conjugated GSL I—isolectin B4 (Vector labs), CD105 (N418), CD140a (APA5), CD11c (N418), F4/80 (BM8), O4 (O4, Miltenyi Biotec), and CD19 (eBio1D3), and un-conjugated antibodies recognizing mouse MOG (8-18C5, Millipore), O1 (O1), and Galactocerebroside (mGlaC, Millipore). All antibodies were from Ebioscience, unless otherwise mentioned (clone number, when relevant, in parentheses). Cells were washed and incubated PE-conjugated Streptavidin and R-Phycoerythrin AffiniPure F(ab′)2 fragment of Goat Anti-Mouse IgG+IgM (H+L) (Jackson ImmunoResearch laboratories) for 20 min at 4 C in the dark. Cells were washed, incubated with 7-AAD or Fixable Viability Dye eFluor® 450 (if cells were to be used for intracellular staining), for exclusion of dead cells (FIG. S3A), and sorted as following. Microglia were sorted as CD11b^+ cells with low CD45 expression and low Ly6C (CD11b+/CD45^low/Ly6C^low), while the inflammatory monocytes were considered as CD11b^+/Ly6C^high 52. T-cells were sorted as CD3^+CD4^+ cells. Astrocytes were isolated following the depletion of lymphocytes, microglia, monocytes (FIG. S3B), and oligodendrocytes, and lymphocytes (T-cells, B-cells, and NK cells) (FIG. S3C). […] We confirmed that we had isolated a relatively pure populations of astrocytes by qPCR for the astrocyte markers^44,51 gfap, aldh1l1 and aqp4, and found them to be exclusively expressed in the astrocyte fraction (in a similar expression pattern to that of GFP^+ astrocytes sorted from Tg(GFP-hGFAP) FVB transgenic mice^49) (FIG. S3E). We used an additional cohort of markers to explore for presence of immune cells [microglia/monocytes cells—itgam (CD11b), and emr1 (F4/80), dendritic cells—itgax (CD11c), NK cells—Klrb1c (Nk1.1), T-cells—cd3, and B-cells—cd19], oligodendrocytes (mog, mbp), and neurons (syt1, snap25) (FIG. S3F, G).
100-200 ng of total RNA was hybridized with reporter and capture probes for nCounter Gene Expression code sets (Mouse Inflammation Kit, or a custom made astrocyte-oriented probe set (Table S1)), according to manufacturer's instructions (NanoString Technologies). Data were normalized to spiked positive controls and housekeeping genes (nSolver Analysis system). Transcript counts less than the mean of the negative control transcripts plus 2 standard deviations for each sample were considered background.
Nanostring generated gene expression data were analyzed by use of the Expander 6.06 platform^53. Genes were clustered using the unbiased CLICK algorithm, and each cluster was further analyzed for enrichments in transcription factors binding sites (promoter analysis).

B4GALT5/6 = assay: Quantification of LacCer levels in the CNS (LC-MS/MS); type: in vivo, mouse; settings: NOD EAE; i.c.v. 1×10^7 IU lentivirus at day 35, 10 days after injection
Description: Chemical standards of LacCer (d18:1/16:0) and LacCer (d18:1/18:0) were obtained from Avanti Polar Lipids. Quantification of LacCer (d18:1/16:0) and LacCer (d18:1/18:0) was achieved by LC-MS/MS analysis performed on an Agilent (Agilent Technologies, Santa Clara, Calif.) 6460 triple-quadrupole LC/MS/MS system. The fragments from the [M+H]^+ ions for LacCer and internal standard were subjected to collision induced dissociation and the two major types of fragment ions were monitored via electrospray ionization in the positive ion mode in multiple reaction monitoring (MRM) mode for each ion. These two MRM transitions corresponded to the loss of the neutral lactosyl moiety, and to the formation of the lactose ion. Specifically, the MRM transitions used for quantification for LacCer (d18:1/16:0) and LacCer(d18:1/18:0) were 862.5>[…] and 890.6>548.5, respectively. Secondary confirmatory MRM transitions for LacCer(d18:1/16:0) and LacCer(d18:1/18:0) of 862.5>264.3 and 890.6>264.3 were also monitored. Mass spectrometer parameter settings were gas temp (325° C.), gas flow (12 L/min), nebulizer (25 psi), sheath gas temp (400° C.), sheath gas flow (12 L/min), capillary voltage (4000v), and nozzle voltage (500v). Liquid chromatography conditions with an a Phenomenex Gemini C18 column 4.6×50 mm 5 μm particle size was used for separation. Chromatography method the following flow rate=0.4 mLs/min; solvent A=5 mM ammonium formate in 5% MeOH and 0.1% formic acid v/v/v; solvent B=80% 2-propanol, 15% methanol, 5% water and 0.1% formic acid (v/v/v/v). […] Standard curve mixture was analyzed at various concentrations between 0.10 nM to 3.3 μM in LacCer (d18:1/16:0) and an internal standard concentration of 1 μM. The lower limit of quantification was estimated at 1 nM and a R^2 of 0.9969 was obtained using linear regression analysis. […]
The brain tissue was weighed and homogenized using a Dounce homogenizer (VWR), in the extraction solvent using a Bligh and Dyer type liquid-liquid extraction. […] The dried sample was reconstituted in 100 μl of 2:1 chloroform-methanol, and analyzed using the HPLC-MS.

EAE NOD mice = assay: EAE in NOD mice, progressive phase (clinical score, histopathology, body weight); type: in vivo; settings: NOD EAE; i.c.v. 1×10^7 IU lentivirus at day 35

With “shB4galt5: lentivirus-delivered shRNA against b4galt5 (TRCN0000018782; SEQ ID NO:2) (guide GCAGCCTGAATGACTCAGATTCTCGAGAATCTGAGTCATTCAGGCTGC)” the “up-regulation of h2-Aa, ccl5 and cxcl10 expression” value (C8-D30 astrocytes) was “did not affect the expression”, the “b4galt6 and b4galt5 expression in astrocytes” value (astrocytes) was “astrocyte-specific knock-down” and the “CNS LacCer levels” value (B4GALT5/6) was “but not of b4galt5, led to a significant decrease of CNS LacCer levels”. For the same substance, the EAE disease progression (EAE NOD mice) was “but not of b4galt5, suppressed disease progression”.
